Test results taken from publication PMC12682859, “Interconnected roles of mitochondrial carrier proteins ANT, PiT, and UCPs in proton transport” (Frontiers in Molecular Biosciences, 2025).

B1: uncoupling protein 2 (UCP2), recombinant His6-tagged (natural protein, human, UniProt P55851 1-309, looked up)
chain: MVGFKATDVPPTATVKFLGAGTAACIADLITFPLDTAKVRLQIQGESQGPVRATASAQYRGVMGTILTMVRTEGPRSLYNGLVAGLQRQMSFASVRIGLYDSVKQFYTKGSEHASIGSRLLAGSTTGALAVAVAQPTDVVKVRFQAQARAGGGRRYQSTVNAYKTIAREEGFRGLWKGTSPNVARNAIVNCAELVTYDLIKDALLKANLMTDDLPCHFTSAFGAGFCTTVIASPVDVVKTRYMNSALGQYSSAGHCALTMLQKEGPRAFYKGFMPSFLRLGSWNVVMFVTYEQLKRALMAACTSREAPF
notes: human UCP2, UniProt P55851; Cloned in pET26b(+); purified as a monomer in OG, tetramer after reconstitution in liposomes; source: E. coli BL21 (DE3) or BL21 CodonPlus (DE3)-RIPL, extracted from bacterial membranes, purified (Ni-NTA IMAC, 1% OG); not shown: pelB leader, N-terminal, cleaved; His6, N-terminal, kept
B2: uncoupling protein 4 (UCP4), recombinant His6-tagged (natural protein, human, UniProt O95847 1-323, looked up)
chain: MSVPEEEERLLPLTQRWPRASKFLLSGCAATVAELATFPLDLTKTRLQMQGEAALARLGDGARESAPYRGMVRTALGIIEEEGFLKLWQGVTPAIYRHVVYSGGRMVTYEHLREVVFGKSEDEHYPLWKSVIGGMMAGVIGQFLANPTDLVKVQMQMEGKRKLEGKPLRFRGVHHAFAKILAEGGIRGLWAGWVPNIQRAALVNMGDLTTYDTVKHYLVLNTPLEDNIMTHGLSSLCSGLVASILGTPADVIKSRIMNQPRDKQGRGLLYKSSTDCLIQAVQGEGFMSLYKGFLPSWLRMTPWSMVFWLTYEKIREMSGVSPF
notes: human UCP4, UniProt O95847; Cloned in pET26b(+); purified as a monomer in OG, tetramer after reconstitution in liposomes; source: E. coli BL21 (DE3) or BL21 CodonPlus (DE3)-RIPL, extracted from bacterial membranes, purified (Ni-NTA IMAC, 1% OG); not shown: pelB leader, N-terminal, cleaved; His6, N-terminal, kept
B3: adenine nucleotide translocase 1 (ANT1), recombinant His6-tagged (natural protein, bovine)
chain: SDQALSFLKDFLAGGVAAAISKTAVAPIERVKLLLQVQHASKQISAEKQYKGIIDCVVRIPKEQGFLSFWRGNLANVIRYFPTQALNFAFKDKYKQIFLGGVDRHKQFWRYFAGNLASGGAAGATSLCFVYPLDFARTRLAADVGKGAAQREFTGLGNCITKIFKSDGLRGLYQGFNVSVQGIIIYRAAYFGVYDTAKGMLPDPKNVHIIVSWMIAQTVTAVAGLVSYPFDTVRRRMMMQSGRKGADIMYTGTVDCWRKIAKDEGPKAFFKGAWSNVLRGMGGAFVLVLYDEIKKFV
notes: bovine ANT1, UniProt P02722; Cloned in pET26b(+); also called ADP/ATP carrier; AAC; source: E. coli BL21 (DE3) or BL21 CodonPlus (DE3)-RIPL, extracted from bacterial membranes, purified (Ni-NTA IMAC, 1% OG); not shown: pelB leader, N-terminal, cleaved; His6, N-terminal, kept

What was measured:
PiT (PiT-B) = target: T1, PiT (PiT-B) (Homo sapiens, UniProt Q00325); assay: SPQ fluorescence proton efflux in proteoliposomes; assay type: biochemical; conditions: EYPC liposomes, valinomycin, pH 7.2, 25 C
T1 construct: gene SLC25A3; isoform B, N-terminal His6 tag kept, pelB leader removed; E. coli membranes; mainly monomer in liposomes
T1 sequence (Q00325 50-361 isoform Q00325-2): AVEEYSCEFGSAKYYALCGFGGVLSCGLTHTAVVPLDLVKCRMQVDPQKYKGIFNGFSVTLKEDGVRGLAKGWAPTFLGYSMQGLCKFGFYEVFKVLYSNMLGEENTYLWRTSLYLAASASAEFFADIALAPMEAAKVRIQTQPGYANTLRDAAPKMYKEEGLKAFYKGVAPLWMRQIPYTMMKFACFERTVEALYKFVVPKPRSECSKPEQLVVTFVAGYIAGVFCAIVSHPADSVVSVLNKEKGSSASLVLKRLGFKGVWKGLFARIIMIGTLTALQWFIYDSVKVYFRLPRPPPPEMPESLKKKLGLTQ

UCP2 [1] = target: T2, UCP2 (Homo sapiens, UniProt P55851); assay: SPQ fluorescence proton efflux in proteoliposomes; assay type: biochemical; conditions: EYPC liposomes, valinomycin, pH 7.2, 25 C
T2 construct: full length, N-terminal His6 tag kept, pelB leader removed; E. coli membranes; homotetramer in liposomes
T2 sequence (P55851 1-309): B1 chain

UCP4 [2] = target: T3, UCP4 (Homo sapiens, UniProt O95847); assay: SPQ fluorescence proton efflux in proteoliposomes; assay type: biochemical; conditions: EYPC liposomes, valinomycin, pH 7.2, 25 C
T3 construct: gene SLC25A27; full length, N-terminal His6 tag kept, pelB leader removed; E. coli membranes; homotetramer in liposomes
T3 sequence (O95847 1-323): B2 chain

ANT1 [3] = target: T4, ANT1 (Bos taurus, UniProt P02722); assay: SPQ fluorescence proton efflux in proteoliposomes; assay type: biochemical; set-up: gene SLC25A4; full length, N-terminal His6 tag kept, pelB leader removed; E. coli membranes; mainly monomer in liposomes; conditions: EYPC liposomes, valinomycin, pH 7.2, 25 C
T4 sequence (P02722 2-298): B3 chain

UCP2 [4] = target: T2, UCP2; assay: SPQ fluorescence proton efflux in proteoliposomes; assay type: biochemical; conditions: 500 uM GTP; EYPC with or without 2.5% cardiolipin, 100 uM palmitic or oleic acid, valinomycin, pH 7.2, 25 C
UCP4 [5] = target: T3, UCP4; assay: SPQ fluorescence proton efflux in proteoliposomes; assay type: biochemical; conditions: 500 uM GTP; EYPC with or without 2.5% cardiolipin, 100 uM palmitic or oleic acid, valinomycin, pH 7.2, 25 C
[6] = target: T5, UCP2:ANT1 heterotetramer (1:1) (Homo sapiens; Bos taurus, UniProt P02722+P55851); assay type: biochemical; conditions: 500 uM ATP; EYPC without added cardiolipin, 100 uM palmitic acid, valinomycin, pH 7.2, 25 C
T5 construct: co-reconstituted 1:1 in liposomes from purified N-terminally His6-tagged monomers (bovine ANT1, human UCP2); heterotetramer
T5 sequence (P55851 1-309): B1 chain
T5 sequence (P02722 2-298): B3 chain

[7] = target: T6, UCP4:ANT1 heterotetramer (1:1) (Homo sapiens; Bos taurus, UniProt O95847+P02722); assay type: biochemical; conditions: 500 uM ATP; EYPC without added cardiolipin, 100 uM palmitic acid, valinomycin, pH 7.2, 25 C
T6 construct: gene SLC25A27; co-reconstituted 1:1 in liposomes from purified N-terminally His6-tagged monomers (bovine ANT1, human UCP4); heterotetramer
T6 sequence (O95847 1-323): B2 chain
T6 sequence (P02722 2-298): B3 chain

ANT1 [8] = target: T4, ANT1; set-up: gene SLC25A4; conditions: 500 uM ATP; EYPC without added cardiolipin, 100 uM palmitic acid, valinomycin, pH 7.2, 25 C
[9] = target: B2; assay: semi-native SDS-PAGE; two purified monomeric proteins co-reconstituted 1:1 in liposomes (UCP4:ANT1 also 3:1 and 1:3), regardless of lipid composition (EYPC with or without 2.5% CL); Coomassie staining; conditions: both partners purified
[10] = target: the molecule itself; assay: semi-native SDS-PAGE; single purified protein reconstituted in liposomes of egg yolk extract (EYPC, ~60% PC) without added cardiolipin; 0.1% SDS in gel and running buffer, samples not heated; Coomassie staining
[11] = target: B1; assay: semi-native SDS-PAGE; two purified monomeric proteins co-reconstituted 1:1 in liposomes (UCP4:ANT1 also 3:1 and 1:3), regardless of lipid composition (EYPC with or without 2.5% CL); Coomassie staining; conditions: both partners purified
[12] = 100 uM palmitic acid as activator

How did the “SPQ fluorescence proton efflux in proteoliposomes” value (shortened to “SPQ fluorescence proton efflux”) (PiT (PiT-B); [12]) turn out when `CCCCCCCCCCCCCCCC(=O)O` [PA, palmitic acid] was run?
The value was “both OA and PA interacted with all proteins and their combinations”.

What about the “fatty acid-activated proton efflux (qualitative)” value (UCP2 [1]; [12]) of the same molecule?
Its value is “both OA and PA interacted with all proteins and their combinations”.

And the “SPQ fluorescence proton efflux” value (UCP4 [2]; [12])?
The value was “both OA and PA interacted with all proteins and their combinations”.

And the “fatty-acid-activated proton transport (qualitative finding)” value (ANT1 [3]; [12])?
The value was “both OA and PA interacted with all proteins and their combinations”.

Which “% inhibition at 500 uM” value (UCP2 [4]) does the source give for `Nc1nc2c(ncn2[C@@H]2O[C@H](COP(=O)(O)OP(=O)(O)OP(=O)(O)O)[C@@H](O)[C@H]2O)c(=O)[nH]1` [GTP] here?
Its value is “GTP is overall a more effective inhibitor than ATP of UCP2 and UCP4”.

What about the “% inhibition at 500 uM” value (UCP4 [5]) of the same molecule?
The value was “GTP is overall a more effective inhibitor than ATP of UCP2 and UCP4”.

For `CCCCCCCC/C=C\CCCCCCCC(=O)O` [OA, oleic acid], which “SPQ fluorescence proton efflux” value (PiT (PiT-B); 100 uM oleic acid as activator) is on record?
Its value is “For each individual protein, OA was a significantly more potent activator than PA”.

What about the “fatty acid-activated proton efflux (qualitative)” value (UCP2 [1]; 100 uM oleic acid as activator) of the same molecule?
Its value is “For each individual protein, OA was a significantly more potent activator than PA”.

And the “SPQ fluorescence proton efflux” value (UCP4 [2]; 100 uM oleic acid as activator)?
The value was “For each individual protein, OA was a significantly more potent activator than PA”.

What about the “fatty-acid-activated proton transport (qualitative finding)” value (ANT1 [3]; 100 uM oleic acid as activator) of the same molecule?
Its value is “For each individual protein, OA was a significantly more potent activator than PA”.

How did the “% inhibition at 500 uM” value [6] turn out when `Nc1ncnc2c1ncn2[C@@H]1O[C@H](COP(=O)(O)OP(=O)(O)OP(=O)(O)O)[C@@H](O)[C@H]1O` [ATP] was run?
The value was “ATP significantly inhibited combinations of UCP2 or UCP4 with ANT1”.

What about the “% inhibition at 500 uM” value [7] of the same molecule?
The value was “ATP significantly inhibited combinations of UCP2 or UCP4 with ANT1”.

What about the “% inhibition at 500 uM” value (ANT1 [8]) of the same molecule?
Its value is “proton transport was inhibited by ATP more effectively than by GTP”.

What does the source list for B1?
binding result [9]: binds; stoichiometry N [10]: 4

Which “stoichiometry N” value [10] does the source give for B2 here?
The value was 4.

Does B3 bind [11]?
Result: binds

Does B3 bind [9]?
Result: binds

And the “stoichiometry N” value [10]?
Its value is 2.
